# Assay results published in patent US20170176440A1, “METHODS AND COMPOSITIONS FOR EVALUATING BREAST CANCER PATIENTS” (THE BOARD OF REGENTS OF THE UNIVERSITY OF TEXAS SYSTEM, priority 2014, published 2017).
# T1: Flag-ERβ (WT)
# T1 chain: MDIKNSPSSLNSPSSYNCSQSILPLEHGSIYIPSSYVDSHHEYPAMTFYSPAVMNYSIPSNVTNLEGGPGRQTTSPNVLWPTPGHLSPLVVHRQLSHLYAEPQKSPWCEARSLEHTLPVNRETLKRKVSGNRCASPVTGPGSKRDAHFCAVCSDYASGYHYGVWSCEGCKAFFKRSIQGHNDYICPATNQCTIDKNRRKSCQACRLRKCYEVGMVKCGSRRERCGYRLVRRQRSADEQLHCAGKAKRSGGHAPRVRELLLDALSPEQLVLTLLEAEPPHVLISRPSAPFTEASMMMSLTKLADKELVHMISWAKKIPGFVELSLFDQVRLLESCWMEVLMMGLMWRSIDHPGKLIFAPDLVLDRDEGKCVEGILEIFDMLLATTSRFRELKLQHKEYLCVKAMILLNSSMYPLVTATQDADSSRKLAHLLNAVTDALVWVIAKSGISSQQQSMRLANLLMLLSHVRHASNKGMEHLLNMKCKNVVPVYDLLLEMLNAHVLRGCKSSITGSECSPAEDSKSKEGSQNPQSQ
# T2: ERβ pY36-containing peptide SIYIPSS(pY)VDSHHE
# T2 chain: SIYIPSSYVDSHHE
# Tests used:
# [1] = test system: pY36 of ERβ in MDA-MB-231 cells; test: pY36 of endogenous ERβ in MDA-MB-231 cells treated with ERβ agonists; type: cell-based; settings: agonists 10 nM, 2 hr (FIG. 19C)
# [2] = test system: p300 recruitment to ERβ target promoters MDA7 and MSMB; test: p300 ChIP at ERβ target promoters in Hs578T cells; type: cell-based; settings: WT-ERβ-expressing Hs578T cells; E2 10 nM
# Description: For ChIP experiments in the ERβ-inducible Hs578T cells, 100 ng/ml doxcycline was added for 24 hr. […] Cells were cross-linked with 1% formaldehyde for 10 min, treated with glycine at a final concentration of 0.125 M for 5 min at room temperature, and lysed in lysis buffer (5 mM HEPES pH 9.0, 85 mM KCl, 0.5% Triton X-100) for 15 min on ice. Nuclei were resuspended in nuclei lysis buffer (50 mM Tris-HCl pH 8.0, 10 mM EDTA, 1% SDS), and the cross-linked DNA was sonicated for 10 min (with a 30 s on/off cycle) using a Bioruptor sonicator (Diagenode). The supernatant was used for ChIP as previously described (Ding et al., Mol Cell., 2008, (31)347-59).
# [3] = two completed and published clinical trials; cited from earlier work
# Flag-ERβ (WT) = target: T1, Flag-ERβ (WT)
# [4] = target: T2, ERβ pY36-containing peptide …
# p300 = target: T3, p300 (UniProt Q09472 2-2414, limits assumed); test: co-IP of Flag-ERβ with endogenous p300 in HEK293T cells
# T3 construct: also called endogenous p300
# T3 sequence (Q09472 2-2414 limits assumed): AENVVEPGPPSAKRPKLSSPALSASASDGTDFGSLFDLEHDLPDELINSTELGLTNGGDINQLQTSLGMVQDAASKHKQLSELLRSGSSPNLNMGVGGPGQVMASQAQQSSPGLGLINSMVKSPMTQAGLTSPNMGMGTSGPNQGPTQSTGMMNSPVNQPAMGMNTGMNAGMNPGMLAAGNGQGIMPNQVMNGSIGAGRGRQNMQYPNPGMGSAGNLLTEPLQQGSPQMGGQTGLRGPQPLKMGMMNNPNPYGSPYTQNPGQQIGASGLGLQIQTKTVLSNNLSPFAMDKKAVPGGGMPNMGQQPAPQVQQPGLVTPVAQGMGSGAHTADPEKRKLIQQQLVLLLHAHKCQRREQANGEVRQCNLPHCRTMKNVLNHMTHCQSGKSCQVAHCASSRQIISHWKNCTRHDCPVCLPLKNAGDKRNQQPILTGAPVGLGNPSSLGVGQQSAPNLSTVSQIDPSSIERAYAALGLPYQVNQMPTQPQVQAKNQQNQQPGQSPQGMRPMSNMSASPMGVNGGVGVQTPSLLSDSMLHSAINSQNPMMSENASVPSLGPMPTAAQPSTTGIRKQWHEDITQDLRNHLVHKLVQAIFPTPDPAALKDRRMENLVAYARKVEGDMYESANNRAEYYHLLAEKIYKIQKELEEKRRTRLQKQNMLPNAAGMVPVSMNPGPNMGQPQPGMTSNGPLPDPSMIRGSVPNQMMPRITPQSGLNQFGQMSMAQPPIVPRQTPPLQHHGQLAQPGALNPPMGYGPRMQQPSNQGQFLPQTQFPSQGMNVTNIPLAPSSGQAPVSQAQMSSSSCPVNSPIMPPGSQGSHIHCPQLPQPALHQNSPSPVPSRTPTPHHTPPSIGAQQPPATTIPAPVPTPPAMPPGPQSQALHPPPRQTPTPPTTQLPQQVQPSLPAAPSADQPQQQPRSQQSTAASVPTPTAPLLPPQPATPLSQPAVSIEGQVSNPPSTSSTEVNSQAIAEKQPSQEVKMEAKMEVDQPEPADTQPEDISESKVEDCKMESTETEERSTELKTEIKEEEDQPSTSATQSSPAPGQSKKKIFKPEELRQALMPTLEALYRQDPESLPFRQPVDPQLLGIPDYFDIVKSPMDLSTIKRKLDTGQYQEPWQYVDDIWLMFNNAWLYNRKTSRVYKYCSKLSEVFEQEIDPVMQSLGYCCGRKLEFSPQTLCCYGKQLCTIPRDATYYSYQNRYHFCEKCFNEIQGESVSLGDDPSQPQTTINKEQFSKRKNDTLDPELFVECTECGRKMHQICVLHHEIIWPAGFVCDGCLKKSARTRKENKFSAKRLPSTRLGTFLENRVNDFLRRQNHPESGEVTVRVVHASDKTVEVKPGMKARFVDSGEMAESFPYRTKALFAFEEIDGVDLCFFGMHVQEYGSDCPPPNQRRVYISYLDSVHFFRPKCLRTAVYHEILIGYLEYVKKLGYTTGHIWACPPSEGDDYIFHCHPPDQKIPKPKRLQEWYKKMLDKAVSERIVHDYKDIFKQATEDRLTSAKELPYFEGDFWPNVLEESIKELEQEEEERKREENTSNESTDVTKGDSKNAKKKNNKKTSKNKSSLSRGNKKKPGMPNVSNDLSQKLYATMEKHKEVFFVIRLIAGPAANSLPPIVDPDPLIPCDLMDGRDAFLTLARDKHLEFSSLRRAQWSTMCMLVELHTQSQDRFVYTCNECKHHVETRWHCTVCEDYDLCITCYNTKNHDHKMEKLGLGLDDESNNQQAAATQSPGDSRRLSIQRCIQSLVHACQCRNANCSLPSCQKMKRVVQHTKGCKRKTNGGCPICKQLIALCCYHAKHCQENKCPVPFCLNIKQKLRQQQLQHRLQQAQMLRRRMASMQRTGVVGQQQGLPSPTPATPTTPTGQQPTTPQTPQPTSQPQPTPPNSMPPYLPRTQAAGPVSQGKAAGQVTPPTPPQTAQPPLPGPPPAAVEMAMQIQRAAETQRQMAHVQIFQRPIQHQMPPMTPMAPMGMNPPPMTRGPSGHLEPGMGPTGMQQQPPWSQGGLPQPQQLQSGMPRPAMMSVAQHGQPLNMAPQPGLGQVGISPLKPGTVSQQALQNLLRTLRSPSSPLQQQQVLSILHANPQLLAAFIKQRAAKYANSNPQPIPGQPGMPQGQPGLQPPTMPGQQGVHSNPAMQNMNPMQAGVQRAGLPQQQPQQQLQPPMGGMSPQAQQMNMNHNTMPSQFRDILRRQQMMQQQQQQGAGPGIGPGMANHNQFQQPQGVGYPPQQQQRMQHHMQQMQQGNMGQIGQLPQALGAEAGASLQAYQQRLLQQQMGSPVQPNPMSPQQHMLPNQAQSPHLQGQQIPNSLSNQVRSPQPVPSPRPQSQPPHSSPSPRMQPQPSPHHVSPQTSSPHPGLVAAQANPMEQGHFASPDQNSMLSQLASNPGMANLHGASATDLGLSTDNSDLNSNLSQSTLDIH
Molecule,ERβ phosphorylation (pY36) [1],binding result (p300),further results
"N#CC(Cc1ccc(O)cc1)c1ccc(O)cc1 (stereo not drawn) [DPN, diarylpropionitrile]",enhanced,–,–
"C[C@]12CC[C@@H]3c4ccc(O)cc4CC[C@H]3[C@@H]1CC[C@@H]2O [E2, 17-β-estradiol]",enhanced,–,recruitment of p300 to the ERβ target promoters [2]: stimulated cyclic recruitment of p300
Oc1ccc([C@H]2COc3cc(O)ccc3C2)cc1 [S-equol],enhanced,–,safety and drug tolerance [3]: has been demonstrated
GST-EYA2 (protein) MVELVISPSLTVNSDCLDKLKFNRADAAVWTLSDRQGITKSAPLRVSQLFSRSCPRVLPRQPSTAMAAYGQTQYSAGIQQATPYTAYPPPAQAYGIPSYSIKTEDSLNHSPGQSGFLSYGSSFSTSPTGQSPYTYQMHGTTGFYQGGNGLGNAAGFGSVHQDYPSYPGFPQSQYPQYYGSSYNPPYVPASSICPSPLSTSTYVLQEASHNVPNQSSESLAGEYNTHNGPSTPAKEGDTDRPHRASDGKLRGRSKRSSDPSPAGDNEIERVFVWDLDETIIIFHSLLTGTFASRYGKDTTTSVRIGLMMEEMIFNLADTHLFFNDLEDCDQIHVDDVSSDDNGQDLSTYNFSADGFHSSAPGANLCLGSGVHGGVDWMRKLAFRYRRVKEMYNTYKNNVGGLIGTPKRETWLQLRAELEALTDLWLTHSLKALNLINSRPNCVNVLVTTTQLIPALAKVLLYGLGSVFPIENIYSATKTGKESCFERIMQRFGRKAVYVVIGDGVEEEQGAKKHNMPFWRISCHADLEALRHALELEYL,–,–,"in vitro dephosphorylation of immunoprecipitated Flag-ERβ, pY36 immunoblot (Flag-ERβ (WT)): recombinant WT, but not mutant EYA2 completely eliminated the pY36 signal of ERβ in vitro; in vitro tyrosine phosphatase assay (release of free phosphate, Malachite Green) [4]: A pY36-containing ERβ peptide that can be dephosphorylated efficiently by recombinant WT-EYA2"
"Flag-ERβ (WT) (receptor, phosphotyrosine at 36 (pY36), as phosphorylated in HEK293T cells, Expressed in HEK293T cells and immunoprecipitated by the Flag tag; also called WT-ERβ; Flag-tagged WT ERβ; not shown: Flag tag) MDIKNSPSSLNSPSSYNCSQSILPLEHGSIYIPSSYVDSHHEYPAMTFYSPAVMNYSIPSNVTNLEGGPGRQTTSPNVLWPTPGHLSPLVVHRQLSHLYAEPQKSPWCEARSLEHTLPVNRETLKRKVSGNRCASPVTGPGSKRDAHFCAVCSDYASGYHYGVWSCEGCKAFFKRSIQGHNDYICPATNQCTIDKNRRKSCQACRLRKCYEVGMVKCGSRRERCGYRLVRRQRSADEQLHCAGKAKRSGGHAPRVRELLLDALSPEQLVLTLLEAEPPHVLISRPSAPFTEASMMMSLTKLADKELVHMISWAKKIPGFVELSLFDQVRLLESCWMEVLMMGLMWRSIDHPGKLIFAPDLVLDRDEGKCVEGILEIFDMLLATTSRFRELKLQHKEYLCVKAMILLNSSMYPLVTATQDADSSRKLAHLLNAVTDALVWVIAKSGISSQQQSMRLANLLMLLSHVRHASNKGMEHLLNMKCKNVVPVYDLLLEMLNAHVLRGCKSSITGSECSPAEDSKSKEGSQNPQSQ",–,binds,–
"Flag-ERβ Y36E (receptor, Expressed in HEK293T cells; also called Y36E-ERβ; Y36E mutant; not shown: Flag tag) MDIKNSPSSLNSPSSYNCSQSILPLEHGSIYIPSSEVDSHHEYPAMTFYSPAVMNYSIPSNVTNLEGGPGRQTTSPNVLWPTPGHLSPLVVHRQLSHLYAEPQKSPWCEARSLEHTLPVNRETLKRKVSGNRCASPVTGPGSKRDAHFCAVCSDYASGYHYGVWSCEGCKAFFKRSIQGHNDYICPATNQCTIDKNRRKSCQACRLRKCYEVGMVKCGSRRERCGYRLVRRQRSADEQLHCAGKAKRSGGHAPRVRELLLDALSPEQLVLTLLEAEPPHVLISRPSAPFTEASMMMSLTKLADKELVHMISWAKKIPGFVELSLFDQVRLLESCWMEVLMMGLMWRSIDHPGKLIFAPDLVLDRDEGKCVEGILEIFDMLLATTSRFRELKLQHKEYLCVKAMILLNSSMYPLVTATQDADSSRKLAHLLNAVTDALVWVIAKSGISSQQQSMRLANLLMLLSHVRHASNKGMEHLLNMKCKNVVPVYDLLLEMLNAHVLRGCKSSITGSECSPAEDSKSKEGSQNPQSQ",–,binds,–
